The results in this text go back to patent publication US20020198142A1, “Cyclopeptide derivatives” (Merck Patent GmbH, priority 1997, published 2002).

The experiment relates to mouse MC3T3 H1 osteoblast cultures. The experiment is described as follows: Cell adhesion test: adhesion of osteoblast cultures in vitro to RGD peptide-coated material surfaces. The experiment is classed as cell-based. Conditions: 50,000 cells/cm^2 inoculated, serum-free medium, 37°/95% atmospheric humidity, one hour, adhered cells/inoculated cells x 100. On the procedure:
Example of Cell Adhesion Test
The adhesion of mouse MC3T3 H1 osteoblast cultures in vitro to RGD peptide-coated material surfaces was investigated. In the course of this, 50,000 cells/cm^2 were inoculated and, after incubation in serum-free medium at 37°/95% atmospheric humidity for one hour, the proportion of adherent cells was determined.
Cell adhesion rate [%]=adhered cells/inoculated cells x 100
Turning to “cyclo-(Arg-Gly-Asp-D-Phe-Lys(N^ε—(CO—CH2—O—CH2CH2—O—CH2CH2—NH)2—CO—(CH2)5—NH—CO—CH═CH2))”, the “cell adhesion rate [%]” value is 110.5%.
For the substance “cyclo-(Arg-Gly-Asp-D-Phe-Lys(N^ε—CO—(CH2)5—NH—CO—(CH2)5—NH—CO—CH═CH2))”, the “cell adhesion rate [%]” value is 92.4%.
For the substance “cyclo-(Arg-Gly-Asp-D-Phe-Lys(N^ε—CO—(CH2)5—NH—CO—CH═CH2))”, the “cell adhesion rate [%]” value is listed as 11.3%.
For the substance “cyclo-(Arg-Gly-Asp-D-Phe-Lys(N^ε—CO—CH2CH2CO—NH—CH2CH2—SH))”, the “cell adhesion rate [%]” value is on record as 86.2%.
To “cyclo-(Arg-Gly-Asp-D-Phe-Lys(N^ε—CO—CH2—O—CH2CH2—O—CH2CH2—NH—CO—(CH2)5—NH—CO—CH═CH2))” belongs 109.0%.
